Assay results reported in patent US20070218504A1, “HUMAN LEPTIN-DERIVED POLYPEPTIDES AND USES THEREOF” (UNIVERSITY OF PITTSBURGH, priority 2006, published 2007).

Experiments:
ob/ob mice = assay: Intracerebralventricular (i.c.v.) injection of human CRP and leptin in ob/ob mice, food intake and body weight; assay type: in vivo, mouse
Experimental: Male C57BL/6J ob/ob mice used in this study were obtained from the Jackson Laboratory, Bar Harbor. Mice (7-8 weeks of age) were fed standard chow and water ad libitum, housed in individual cages under controlled temperature at 22° C. and a 12-hour light-dark cycle with light from 0700 to 1900 h. Food intake and body weight were measured daily throughout the study. All experimental procedures were performed according to protocols approved by the Institutional Animal Care and Use Committee at the University of Pittsburgh. Cannulas were surgically implanted into the lateral ventricles of male ob/ob mice. Specifically, the mice were intraperitoneally anesthetized with 250 mg/Kg Avertin (Sigma-Aldrich). A plastic cannula was inserted into lateral cerebral ventricle: −0.7 mm relative to bregma, 1.3 mm lateral of midline, and 2 mm down to the calvarium. The exteriorized cannula was secured on the skull with original Super Glue. To prevent the cannula from becoming blocked by blood clots, a 28-gauge stainless syringe pinhead was inserted into each cannula. The animals were allowed to recover for 1 week after surgery until the food-intake reaches at least 90% of the pre-operative level. All agents were injected slowly with a volume of 1 μl using a 5 μl syringe (Hamilton, Reno, Nev.). For instance, human CRP was injected at a lower concentration of 1.2 μg per animal and a higher concentration of 2.3 μg per animal into the lateral ventricles. The i.c.v injection of human CRP was followed 24 hours later by injection of human leptin at a sub-maximal dose of 100 ng/animal. In a parallel experiment, human leptin was also injected via i.c.v. following a pre-injection of PBS. In each injection scheme, food was returned to the animals 1 hour after the injection, and the amount of food-intake and body weight were measured 24 hours later. All paired comparisons were subject to a two-tailed Student t-test with P<0.05 considered statistically significant. Additionally, human leptin was injected via i.c.v. for an extended period of two days subsequent to a pre-injection of human CRP with a dosage of 2.3 μg/injection. In a parallel experimental scheme, daily injection of human leptin was performed for two consecutive days subsequent to a pre-injection of PBS.

[1] = tested on: tyrosine phosphorylation of STAT3 in the hypothalamic tissues; assay: Tyrosine phosphorylation of STAT3 in hypothalamic tissues after i.c.v. injection (Western blot); assay type: in vivo, mouse
Experimental: The hypothalamic tissues were surgically dissected right after sacrificing the mice. A portion of each tissue was extracted for protein in a protein lysis buffer. The activation of STAT3 was evaluated using Western blot assays with an antibody against phospho-tyrosine-STAT3 as described above (Cell Signaling, Beverly, Mass.). The membrane was striped and applied with an antibody against STAT3 to evaluate the overall level of STAT3 (Cell Signaling, Beverly, Mass.).
To determine whether the interaction between human CRP and leptin dampens the cellular actions of leptin, an assessment was made of the ability of leptin to stimulate tyrosine phosphorylation of STAT3 in the hypothalamic tissues. As described above, human CRP at 2.3 μg/injection or PBS was pre-injected via i.c.v., followed by an injection of human leptin or mouse leptin, each at 100 ng/injection. Subsequently, the hypothalamic tissues were dissected and immediately placed into liquid nitrogen for a rapid freezing. A portion of the frozen tissue was homogenized in a protein lysis buffer for the extraction of proteins. The protein extract was then subjected to Western blot assay as described above.

[2] = human leptin 100 ng/animal i.c.v. after PBS pre-injection, 24 hours

Row | Substance | effect of CRP pre-injection on satiety and weight reducing effects of human leptin, 1.2 μg (ob/ob mice; human CRP 1.2 μg i.c.v. 24 hours before leptin) | effect of CRP pre-injection on first injection of human leptin (ob/ob mice; human CRP 2.3 μg/injection) | effect of CRP pre-injection on second injection of human leptin (ob/ob mice; human CRP 2.3 μg/injection) | effect of CRP pre-injection on satiety and weight reducing effects of human leptin, 2.3 μg (ob/ob mice; human CRP 2.3 μg/μl i.c.v. 24 hours before leptin) | food consumed after CRP alone compared to PBS alone (ob/ob mice; i.c.v., ob/ob mice) | effect of CRP pre-injection on human leptin-induced STAT3 activation ([1]; human CRP 2.3 μg/injection) | effect of CRP pre-injection on mouse leptin-induced STAT3 activation ([1]; human CRP 2.3 μg/injection) | effect of daily injection of human leptin for two days on food intake and body weight (ob/ob mice; after PBS pre-injection) | decrease in food-intake (ob/ob mice; [2]) [%] | reduction of body weight (ob/ob mice; [2]) [%] | level of phosph-STAT3 in hypothalamic tissues after leptin ([1]; human leptin 100 ng/injection following PBS)
1 | human CRP: human C-reactive protein, purified preparation from a commercial source | partially blunted | completely blunted | at least partially blocked | completely blocked | essentially the same amount of food | drastically diminished | did not block | – | – | – | –
2 | human leptin: human recombinant leptin | – | – | – | – | – | – | – | gradual decreases in food intake and body weight | 40.2 | 2.17 | sharp increase
